In ChEMBL document CHEMBL5729103, “Thienopyrazine carboxamides as ubiquitin-specific protease inhibitors” (2022):
pIC50: −log10 of the molar value.

Biological target: T1, Ubiquitin carboxyl-terminal hydrolase 28 (Homo sapiens, UniProt Q96RU2)
T1 sequence (Q96RU2 whole entry): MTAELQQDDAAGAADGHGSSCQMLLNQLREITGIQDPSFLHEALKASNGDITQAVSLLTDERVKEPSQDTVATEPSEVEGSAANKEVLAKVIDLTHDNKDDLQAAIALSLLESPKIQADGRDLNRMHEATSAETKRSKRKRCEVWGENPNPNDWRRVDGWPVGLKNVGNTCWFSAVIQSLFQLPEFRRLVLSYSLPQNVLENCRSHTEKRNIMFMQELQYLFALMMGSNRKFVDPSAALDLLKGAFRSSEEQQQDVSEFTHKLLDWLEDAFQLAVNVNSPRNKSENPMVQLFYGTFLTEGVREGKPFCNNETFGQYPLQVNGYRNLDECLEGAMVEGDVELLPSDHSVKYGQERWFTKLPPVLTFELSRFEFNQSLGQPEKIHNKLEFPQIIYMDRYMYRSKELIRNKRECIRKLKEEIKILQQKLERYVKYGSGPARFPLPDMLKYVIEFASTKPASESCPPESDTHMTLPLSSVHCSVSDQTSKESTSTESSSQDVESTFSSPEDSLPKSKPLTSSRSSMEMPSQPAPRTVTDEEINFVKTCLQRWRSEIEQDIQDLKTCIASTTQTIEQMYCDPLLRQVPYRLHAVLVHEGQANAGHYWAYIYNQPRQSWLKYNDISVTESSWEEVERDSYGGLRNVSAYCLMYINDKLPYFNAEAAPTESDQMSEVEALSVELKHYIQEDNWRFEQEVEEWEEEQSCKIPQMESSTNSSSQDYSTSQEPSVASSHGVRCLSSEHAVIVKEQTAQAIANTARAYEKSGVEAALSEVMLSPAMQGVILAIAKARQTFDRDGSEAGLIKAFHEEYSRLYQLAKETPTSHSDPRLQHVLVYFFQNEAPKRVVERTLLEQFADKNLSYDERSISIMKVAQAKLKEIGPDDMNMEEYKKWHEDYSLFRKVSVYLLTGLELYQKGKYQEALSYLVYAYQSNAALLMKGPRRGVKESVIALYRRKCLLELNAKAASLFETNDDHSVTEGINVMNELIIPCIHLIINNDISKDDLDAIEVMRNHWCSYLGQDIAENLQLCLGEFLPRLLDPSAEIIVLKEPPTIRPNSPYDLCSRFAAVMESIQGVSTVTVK
Experiment: Biochemical Assay: Ubiquitin-Rhodamine 110 Assay for USP28 Activity: Each assay was performed in a final volume of 20 μL in assay buffer containing 20 mM Tris-HCl (pH 8.0, (1M Tris-HCl, pH 8.0 solution; Corning 46-031-CM)), 2 mM CaCl2 (1M Calcium Chloride solution; Sigma #21114) 2 mM BME (2-Mercaptoethanol; Sigma 63689-25ML-F), 0.01% Prionex (0.22 μM filtered, Sigma #G-0411), and 0.01% Triton X-100. Stock compound solutions were stored at −20° C. as 10 mM in DMSO. Up to 1 month prior to the assay, 2 mM test compounds were pre-dispensed into assay plates (Black, low volume; Corning #3820) and frozen at −20° C. Prestamped assay plates were allowed to come to room temperature on the day of the assay. For the screen, 100 nL of 2 mM was pre-dispensed for a final screening concentration of 10 μM (DMSO(fc)=0.5%). […]

Structure (SMILES): Cc1cnc2c(N)c(C(=O)NCCc3ccc(N4CC5CCC(C4)N5)cc3)sc2n1
- pIC50: > 6.70
